Results published in ChEMBL document CHEMBL3885861, “Open TG-GATES”.

Species: Rattus norvegicus
Test: Open TG-GATES - Regimen: Single
Type: toxicity, organism-based, Sprague-Dawley
Set-up: regimen Single, gender Male, age 6 weeks
Details: in vivo, po, 0 mg/kg, route gavage, dose level Control; for APTT / Bas / Eos / Fbg / Hb / Ht / Lym / MCH / MCHC / MCV / Mono / Neu / PT / Plat / RBC / Ret / WBC: tissue Blood; for KIDNEY_L / KIDNEY_R / KIDNEY_TOTAL: tissue Kidney; for LIVER: tissue Liver; for A/G / ALP / ALT / AST / BUN / CRE / Ca / Cl / DBIL / GLC / IP / LDH / Na / PL / RALB / TBIL / TC / TG / TP / gamma-GTP: tissue Plasma

`NC(N)=Nc1nc(CSCCC(N)=NS(N)(=O)=O)cs1` [FAMOTIDINE] showed a TERMINAL_BW (3 h) of 217.3 g, an APTT (3 h) of 20.1 s and a Bas (3 h) of 0%. It also gave an Eos (3 h) of 1%, a Fbg (3 h) of 209.8 mg/dL and a Hb (3 h) of 13.2 g/dL. The Ht (3 h) was 37.2%, the Lym (3 h) was 64.8% and the MCH (3 h) was 22.3 pg. The MCHC (3 h) was 35.5%, the MCV (3 h) was 62.6 fL and the Mono (3 h) was 3.8%. For the same compound, the Neu (3 h) was 26.8%, the PT (3 h) was 12.5 s and the Plat (3 h) was 110.5 x10_4/uL. For the same compound, the RBC (3 h) was 593.6 x10_4/ul, the Ret (3 h) was 8.2% and the WBC (3 h) was 81.2 x10_2/uL. For the same compound, the KIDNEY_L (3 h) was 1 g, the KIDNEY_R (3 h) was 1 g and the KIDNEY_TOTAL (3 h) was 1.9 g. The LIVER (3 h) was 10.4 g, the A/G (3 h) was 1.7 and the ALP (3 h) was 809.6 IU/L. The ALT (3 h) was 39 IU/L, the AST (3 h) was 71 IU/L and the BUN (3 h) was 10.8 mg/dL. For the same compound, the CRE (3 h) was 0.4 mg/dL, the Ca (3 h) was 10.8 mg/dL and the Cl (3 h) was 103.2 meq/L. For the same compound, the DBIL (3 h) was 0.078 mg/dL, the GLC (3 h) was 197.2 mg/dL and the IP (3 h) was 9.1 mg/dL. For the same compound, the LDH (3 h) was 196.4 IU/L, the Na (3 h) was 140.8 meq/L and the PL (3 h) was 139 mg/dL. The RALB (3 h) was 3.4 g/dL, the TBIL (3 h) was 0.1 mg/dL and the TC (3 h) was 77.4 mg/dL. For the same compound, the TG (3 h) was 55.8 mg/dL, the TP (3 h) was 5.4 g/dL and the gamma-GTP (3 h) was 1.4 IU/L. For the same compound, the TERMINAL_BW (6 h) was 212.9 g, the APTT (6 h) was 20 s and the Bas (6 h) was 0%. The Eos (6 h) was 0.8%, the Fbg (6 h) was 218.6 mg/dL and the Hb (6 h) was 13.4 g/dL. For the same compound, the Ht (6 h) was 37.6%, the Lym (6 h) was 79.4% and the MCH (6 h) was 22 pg. It also gave an MCHC (6 h) of 35.7%, an MCV (6 h) of 61.7 fL and a Mono (6 h) of 2.4%. It also gave a Neu (6 h) of 15.2%, a PT (6 h) of 12.4 s and a Plat (6 h) of 119.6 x10_4/uL. For the same compound, the RBC (6 h) was 610.2 x10_4/ul, the Ret (6 h) was 6.9% and the WBC (6 h) was 94.2 x10_2/uL. For the same compound, the KIDNEY_L (6 h) was 1 g, the KIDNEY_R (6 h) was 1 g and the KIDNEY_TOTAL (6 h) was 2 g. It also gave an LIVER (6 h) of 9.3 g, an A/G (6 h) of 1.5 and an ALP (6 h) of 928.8 IU/L. The ALT (6 h) was 32.6 IU/L, the AST (6 h) was 64.2 IU/L and the BUN (6 h) was 9.2 mg/dL. For the same compound, the CRE (6 h) was 0.4 mg/dL, the Ca (6 h) was 10.7 mg/dL and the Cl (6 h) was 102.6 meq/L. It also gave a DBIL (6 h) of 0.068 mg/dL, a GLC (6 h) of 193.8 mg/dL and an IP (6 h) of 9 mg/dL. For the same compound, the LDH (6 h) was 193.6 IU/L, the Na (6 h) was 140 meq/L and the PL (6 h) was 142.8 mg/dL. It also gave an RALB (6 h) of 3.3 g/dL, a TBIL (6 h) of 0.1 mg/dL and a TC (6 h) of 80.6 mg/dL. The TG (6 h) was 60 mg/dL, the TP (6 h) was 5.5 g/dL and the gamma-GTP (6 h) was 1 IU/L. The TERMINAL_BW (9 h) was 209.9 g, the APTT (9 h) was 19.9 s and the Bas (9 h) was 0%. The Eos (9 h) was 1%, the Fbg (9 h) was 228.2 mg/dL and the Hb (9 h) was 13.3 g/dL. The Ht (9 h) was 36.7%, the Lym (9 h) was 65.4% and the MCH (9 h) was 22.9 pg. It also gave an MCHC (9 h) of 36.2%, an MCV (9 h) of 63.3 fL and a Mono (9 h) of 2.4%. For the same compound, the Neu (9 h) was 29%, the PT (9 h) was 12.7 s and the Plat (9 h) was 118.2 x10_4/uL. For the same compound, the RBC (9 h) was 580.8 x10_4/ul, the Ret (9 h) was 7.5% and the WBC (9 h) was 106.4 x10_2/uL. It also gave a KIDNEY_L (9 h) of 1 g, a KIDNEY_R (9 h) of 1 g and a KIDNEY_TOTAL (9 h) of 2 g. The LIVER (9 h) was 9.1 g, the A/G (9 h) was 1.5 and the ALP (9 h) was 883.2 IU/L. It also gave an ALT (9 h) of 28.4 IU/L, an AST (9 h) of 56.8 IU/L and a BUN (9 h) of 8.8 mg/dL. It also gave a CRE (9 h) of 0.3 mg/dL, a Ca (9 h) of 10.4 mg/dL and a Cl (9 h) of 102.8 meq/L. For the same compound, the DBIL (9 h) was 0.056 mg/dL, the GLC (9 h) was 205.2 mg/dL and the IP (9 h) was 9.4 mg/dL. For the same compound, the LDH (9 h) was 138.6 IU/L, the Na (9 h) was 140 meq/L and the PL (9 h) was 133.8 mg/dL. It also gave an RALB (9 h) of 3.2 g/dL, a TBIL (9 h) of 0.1 mg/dL and a TC (9 h) of 70.6 mg/dL. It also gave a TG (9 h) of 46.6 mg/dL, a TP (9 h) of 5.4 g/dL and a gamma-GTP (9 h) of 0.8 IU/L. The TERMINAL_BW (24 h) was 226.6 g, the APTT (24 h) was 19.6 s and the Bas (24 h) was 0%. For the same compound, the Eos (24 h) was 1%, the Fbg (24 h) was 232.4 mg/dL and the Hb (24 h) was 13.3 g/dL. It also gave a Ht (24 h) of 37.3%, a Lym (24 h) of 78.4% and an MCH (24 h) of 22.5 pg. It also gave an MCHC (24 h) of 35.7%, an MCV (24 h) of 63.2 fL and a Mono (24 h) of 2.8%. It also gave a Neu (24 h) of 15.8%, a PT (24 h) of 11.9 s and a Plat (24 h) of 126.9 x10_4/uL. It also gave an RBC (24 h) of 590 x10_4/ul, a Ret (24 h) of 6.6% and a WBC (24 h) of 84.4 x10_2/uL. For the same compound, the KIDNEY_L (24 h) was 1.1 g, the KIDNEY_R (24 h) was 1.1 g and the KIDNEY_TOTAL (24 h) was 2.1 g. The LIVER (24 h) was 11 g, the A/G (24 h) was 1.5 and the ALP (24 h) was 1002.2 IU/L. The ALT (24 h) was 34.2 IU/L, the AST (24 h) was 65.4 IU/L and the BUN (24 h) was 13.4 mg/dL. It also gave a CRE (24 h) of 0.4 mg/dL, a Ca (24 h) of 10.7 mg/dL and a Cl (24 h) of 102.6 meq/L. For the same compound, the DBIL (24 h) was 0.088 mg/dL, the GLC (24 h) was 186.4 mg/dL and the IP (24 h) was 7.3 mg/dL. It also gave an LDH (24 h) of 203.2 IU/L, a Na (24 h) of 139.4 meq/L and a PL (24 h) of 147.2 mg/dL. It also gave an RALB (24 h) of 3.4 g/dL, a TBIL (24 h) of 0.1 mg/dL and a TC (24 h) of 81.8 mg/dL. For the same compound, the TG (24 h) was 85.6 mg/dL, the TP (24 h) was 5.7 g/dL and the gamma-GTP (24 h) was 1 IU/L.
